{"source": "PubChem BioAssay AID390", "about": "(SGCOxCompounds, 2006)"}
{"molecular_target": "Serine/threonine-protein kinase PAK 5 (Homo sapiens) (UniProt Q9P286)", "sequence (Q9P286 whole entry, looked up)": "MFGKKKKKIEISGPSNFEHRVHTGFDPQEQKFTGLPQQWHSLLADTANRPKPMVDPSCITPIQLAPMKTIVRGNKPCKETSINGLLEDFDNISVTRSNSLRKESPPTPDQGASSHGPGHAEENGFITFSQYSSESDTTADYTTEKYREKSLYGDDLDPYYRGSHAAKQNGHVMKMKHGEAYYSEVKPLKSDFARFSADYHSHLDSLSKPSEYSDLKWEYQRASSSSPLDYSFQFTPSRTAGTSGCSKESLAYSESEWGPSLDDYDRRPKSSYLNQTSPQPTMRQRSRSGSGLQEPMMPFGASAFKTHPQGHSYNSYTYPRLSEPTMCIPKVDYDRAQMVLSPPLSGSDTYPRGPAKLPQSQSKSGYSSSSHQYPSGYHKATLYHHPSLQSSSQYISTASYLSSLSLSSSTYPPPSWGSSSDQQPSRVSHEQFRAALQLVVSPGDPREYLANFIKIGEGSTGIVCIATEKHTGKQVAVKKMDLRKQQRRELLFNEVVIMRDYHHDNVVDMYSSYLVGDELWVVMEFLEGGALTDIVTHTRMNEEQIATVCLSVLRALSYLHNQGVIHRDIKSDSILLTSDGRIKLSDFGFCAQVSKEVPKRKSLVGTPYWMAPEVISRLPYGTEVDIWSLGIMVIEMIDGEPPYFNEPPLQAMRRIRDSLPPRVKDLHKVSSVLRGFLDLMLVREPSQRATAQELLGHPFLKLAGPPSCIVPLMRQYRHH", "assay": "ligand-induced stabilization of human PAK5 kinase – biophysical, DSF, SYPRO orange, recombinant protein (AID 390)", "conditions": "recombinant PAK5, DSF thermal shift, at 10 µM, stronger effect = higher value", "units": {"Tm shift": "Celsius"}}
{"compound": "CC(O)(O)C1(O)C[C@@H]2O[C@@]1(C)n1c3ccccc3c3c4c(c5c6ccccc6n2c5c31)C(=O)NC4", "note": "(stereo not given in full)", "Tm shift": 5.05}
{"compound": "Cc1cc(Nc2nc(-c3ccccc3)nc3ccccc23)n[nH]1", "Tm shift": 4.73}
{"compound": "O=Nc1c(-c2c(O)[nH]c3cc(Br)ccc23)[nH]c2ccccc12", "Tm shift": 4.6}
{"compound": "NS(=O)(=O)c1ccc(Nc2nc(OCC3CCCCC3)c3[nH]cnc3n2)cc1", "Tm shift": 3.3}
{"compound": "O=C1Cc2c([nH]c3ccc(N(O)O)cc23)-c2ccccc2N1", "Tm shift": 3.9}
{"compound": "N#CCCc1ccc2c(c1)-c1[nH]c3ccc(-n4oo4)cc3c1CC(=O)N2", "Tm shift": 4.05}
{"compound": "O=C1Cc2c([nH]c3ccc(Br)cc23)-c2ccccc2N1", "Tm shift": 3.5}
{"compound": "Nc1nc(Nc2ccc(S(N)(=O)=O)cc2)nn1C(=S)Nc1c(F)cccc1F", "Tm shift": 5.57}
{"compound": "O=C1NC(=O)c2c1c1c3ccccc3n3c1c1c2c2ccccc2n1[C@@H]1CCC3O1", "Tm shift": 3.69}
{"compound": "CCn1cnc2c(Nc3cccc(Cl)c3)nc(N[C@@H]3CCCC[C@@H]3N)nc21", "Tm shift": 6.75}
{"compound": "OCC(O)CCO/N=C1/C(c2c(O)[nH]c3ccccc23)=Nc2ccccc21", "note": "(stereo not given)", "Tm shift": 3.37}
{"compound": "Cn1cc(/C=C2\\C(=O)Nc3ccc(S(N)(=O)=O)cc32)c2ccccc21", "Tm shift": 4.3}
{"compound": "O=C1NCc2c1c1c3ccccc3[nH]c1c1[nH]c3ccccc3c21", "Tm shift": 4.4}
{"compound": "CCN(CC)CCNC(=O)c1c(C)[nH]c(/C=C2\\C(=O)Nc3ccc(Cl)cc32)c1C", "Tm shift": 4.47}
{"compound": "CC(=O)n1c(C2=c3ccccc3=NC2=O)c(O)[nH]c1=S", "Tm shift": 3.1}
{"compound": "CC(C)c1nn(-c2c(Cl)cccc2Cl)c2nc(Cc3ccc(OCCO)cc3)[nH]c(=O)c12", "Tm shift": 3.1}
{"compound": "CC(C)C(CO)Nc1nc(Nc2cccc(Cl)c2)c2ncn(C(C)C)c2n1", "note": "(stereo not given)", "Tm shift": 4.5}
{"compound": "NCCNc1ncc(C(N)=O)c(Nc2cccc(C(F)(F)F)c2)n1", "Tm shift": 5.9}
{"compound": "O=Nc1c(-c2c(O)[nH]c3ccccc23)[nH]c2ccccc12", "Tm shift": 4.2}
{"compound": "NC(=O)c1ccc(-c2nc(-c3ccc4c(c3)OCCO4)c(-c3ccccn3)[nH]2)cc1", "Tm shift": 4.1}
